Values of other authors, collected in patent US20150010509A1 (priority 2012, published 2015).
“Also recorded” adds a separate entry of the source. Read-outs that look alike come from different tables or passages of the source.

How the values were obtained:
[1] = test system: MDA-MB-231 human breast cancer cells; settings: SCID mice, cited from earlier work
[2] = test system: human peripheral blood mononuclear cells (PBMC); settings: cited from earlier work
[3] = test system: plasma cytokines, kynurenine, tryptophan; settings: cited from earlier work
[4] = test system: EMT6 mouse mammary tumor cells; settings: CaPterin suspension 7 mg/kg/day oral, Balb/c mice, cited from earlier work
[5] = test system: MDA-MB-231 human breast cancer cells; settings: cited from earlier work
[6] = test system: human peripheral blood mononuclear cells (PBMC); settings: at the concentrations tested; cited from earlier work
[7] = molecular target: T1, IDO (indoleamine 2,3-dioxygenase) (Homo sapiens, UniProt P14902); settings: cited from earlier work
T1 construct: freshly isolated human peripheral blood mononuclear cells (PBMC); endogenous in cells; host or cells: freshly isolated human PBMC stimulated with PHA or Con A
T1 sequence (P14902 whole entry): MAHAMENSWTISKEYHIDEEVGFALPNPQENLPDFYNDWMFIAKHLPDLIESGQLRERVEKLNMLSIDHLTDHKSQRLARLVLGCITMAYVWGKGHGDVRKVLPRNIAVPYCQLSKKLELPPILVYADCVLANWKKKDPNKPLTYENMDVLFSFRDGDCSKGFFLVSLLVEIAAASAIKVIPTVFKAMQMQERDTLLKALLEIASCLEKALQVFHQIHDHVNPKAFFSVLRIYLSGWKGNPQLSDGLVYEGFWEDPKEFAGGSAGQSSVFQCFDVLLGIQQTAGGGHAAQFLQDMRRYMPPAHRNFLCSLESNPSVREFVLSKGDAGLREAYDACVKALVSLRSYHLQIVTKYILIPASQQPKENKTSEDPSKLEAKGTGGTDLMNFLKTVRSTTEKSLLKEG

[8] = test system: mammary gland adenocarcinomas; settings: CaPterin suspension 7 mg/kg/day, oral gavage, seven days; C3H/HeN-MTV+ female mice; cited from earlier work
[9] = test system: serum kyn/trp, MCP-1, GM-CSF; settings: DCP per os 14 days; regression p=0.001; cited from earlier work
[10] = cited from earlier work
[11] = test system: M. bovis BCG; settings: cited from earlier work
[12] = test system: hepatitis B virus (HBV); settings: cited from earlier work
[13] = test system: MIP-1β, inducible nitric oxide synthase 2, IDO gene expression; settings: infected human monocytes; cited from earlier work
[14] = Unstimulated PBMC + 200 μg/ml CaPterin
[15] = stepwise regression on CaPterin dose, p=0.047

## Nc1nc2c3c(ncc[n+]3[Ca][O]2)n1
[1]; 13, 20 and 26 mg/kg CaPterin, oral gavage Monday through Friday for 75 days
  antitumor efficacy: no antitumor efficacy
[1]; CaPterin suspension over 75 days
  toxicity: no measurable toxicity
[2]; PBMC
  neopterin excretion: suppressed
[2]; [14]
  Neopterin: did not influence this level
[3]; [15]
  plasma IFN-γ: decreases
  plasma IL-6: decreases
  plasma IL-10: increases
[3]; stepwise regression on CaPterin dose, p=0.047, confounded by tumor shrinkage
  plasma kynurenine: increases
[4]; 15 days
  animal toxicity determined by decreased body weight: no measurable animal toxicity
[4]; once daily 15 days
  effect on tumor growth: no significant effect on tumor growth
[5]; CaPterin 21 mg/(kg day), after 60 days of treatment, 5×10^6 cells, nude mice
  T/C: 37%
[5]; CaPterin suspension 7 mg/kg/day, oral gavage once daily 14 days, 5×10^6 cells, nude mice
  T/C after 14 days: 41%
[5]; CaPterin suspension 7 mg/kg/day, oral gavage, 14 days, nude mice
  treatment toxicity assessed by reductions in body weight: No treatment toxicity
[5]; mega-dosed by oral gavage 100 mg/(kg day) for up to 31 days
  toxicity (appreciable weight loss ≧10%): no observed toxicity
[6]
  toxicity by exclusion method: no toxicity
[7]; PBMC + Con A + CaPterin
  Kynurenine decrease: ≦100-fold
  Tryptophan: 17.7 µM
[7]; PBMC + PHA + CaPterin
  Kynurenine decrease: ≦100-fold
  Tryptophan: 17.7 µM
[7]; [14]
  Kynurenine: did not significantly affect
  Kynurenine/Tryptophan: lower
  Tryptophan: did not significantly affect
[7]; mitogen-stimulated PBMC
  IDO activity / stimulation-induced tryptophan degradation: suppressed stimulation-induced tryptophan degradation in a dose-dependent manner
[8]
  ratio of Test tumor volumes to Control tumor volumes (T/C) at Day 7: 10%

## Nc1nc2nccnc2c(=O)[nH]1.[Ca] [(1:2 mol/mol) calcium pterin, calcium pterin]
[5]; (1:2 mol/mol) calcium pterin 25 mg/(kg day), 10×10^6 cells, 70-98 days of treatment
  T/C: 25%

## O.O.[Ca+2].[Cl-].[Cl-] [Calcium chloride dihydrate, calcium chloride dihydrate]
[5]; calcium chloride dihydrate 4.2 mg/(kg day), 10×10^6 cells, 70-98 days of treatment
  T/C: 25%

## Nc1nc([O-])c2nccnc2n1.Nc1nc([O-])c2nccnc2n1.[Ca+2] [DCP, dipterinyl calcium pentahydrate]
[9]
  IDO activity, serum kyn/trp: decreased
  chemokine MCP-1: reduced
  serum GM-CSF: increased
[10]; 7 mg/(kg d) DCP orally in 0.4% carboxymethylcellulose, 21 days, female DIO C57BL/6J mice, p<0.05
  reduction of OGTT/AUC (area under OGTT curve): 50%
[10]; optimum dose 7 mg/(kg d) DCP, female DIO mice
  OGTT diabetic state: significantly improved
[11]; DCP treatment of infected human monocytes
  viability of intracellular M. bovis BCG: significant reduction
[11]; DCP treatment
  viability of extracellular M. bovis BCG: not extracellular
[3]; DCP treated mice, regression p=0.003
  tumor growth relation to plasma cytokines (DCP/APCP regression): decreases with IL-12 and IL-4, and increases with IL-6
[5]; DCP 23 mg/(kg d), 10×10^6 cells, 70-98 days of treatment
  T/C: 25%
[5]; DCP 69 mg/(kg d), 10×10^6 cells, 70-98 days of treatment
  T/C: 50%
[12]; DCP 23 mg/(kg d) per os, 14 days
  inhibition of liver HBV DNA: 83%
[12]; DCP per os once daily 14 days, 2.3 to 23 mg/(kg d), female HBV mice
  liver HBV DNA measured by PCR: significant dose-response reduction; also recorded: decreased
[13]
  C-C chemokine MIP-1β: induction
  IDO gene expression: suppressed
  inducible nitric oxide synthase 2: induction

## CC(=O)O.CNC(=N)NCCC[C@H](N)C(=O)O [L-NMMA monoacetate]
[11]; added to DCP-treated infected human monocytes
  effect on DCP inhibition of intracellular mycobacterial growth: reversed the inhibitory effects of DCP on intracellular mycobacterial growth

## Nc1nc2nccnc2c(=O)[nH]1 [Pterin, pterin]
[5]; pterin 21 mg/(kg day), nude mice
  antitumor activity: no antitumor activity

## CC(C)(C)C(=O)OCOP(=O)(COCCn1cnc2c(N)ncnc21)OCOC(=O)C(C)(C)C [adefovir dipivoxil]
[12]; ADV 10 mg/(kg day)
  inhibition of liver HBV DNA: ~83%
